Laboratory results as given in ChEMBL document CHEMBL3046635, “Synthesis and Herbicidal Activity of New Pyrazole-4-carboxamide Derivatives” (J Pestic Sci, 2004).
The source made the active and inactive calls. Unless noted, the calls are words filed in the database; no cut-off is given here.

Tests used:
Echinochloa oryzicola [1] = assay: Pre-emergence herbicidal activity against Echinochloa oryzicola assessed as bleaching of stem/leaf parts; format: functional, organism-based
Eleocharis acicularis [2] = assay: Pre-emergence herbicidal activity against Eleocharis acicularis at 500 g a.i/ha measured after 14 days; format: functional, organism-based
Rotala indica [3] = assay: Post-emergence herbicidal activity against Rotala indica assessed as bleaching of stem/leaf parts; format: functional, organism-based; further: test concentration or dose not given here
Lindernia procumbens [4] = assay: Pre-emergence herbicidal activity against Lindernia procumbens at 100 g a.i/ha measured after 14 days; format: functional, organism-based
Eleocharis acicularis [5] = assay: Pre-emergence herbicidal activity against Eleocharis acicularis assessed as bleaching of stem/leaf parts; format: functional, organism-based
Cyperus difformis [6] = assay: Pre-emergence herbicidal activity against Cyperus difformis assessed as bleaching of stem/leaf parts; format: functional, organism-based
Echinochloa oryzicola [7] = assay: Pre-emergence herbicidal activity against Echinochloa oryzicola at 500 g a.i/ha measured after 14 days; format: functional, organism-based
Oryza sativa [8] = assay: Phytotoxicity against Oryza sativa cv. Koshihikari (rice) at 500 g a.i/ha measured after 14 days; format: organism-based; conditions: in vivo, 336 h
Cyperus difformis [9] = assay: Post-emergence herbicidal activity against Cyperus difformis assessed as bleaching of stem/leaf parts; format: functional, organism-based; further: test concentration or dose not given here
Cyperus difformis [10] = assay: Pre-emergence herbicidal activity against Cyperus difformis at 100 g a.i/ha measured after 14 days; format: functional, organism-based
[11] = system: Schoenoplectiella juncoides; assay: Post-emergence herbicidal activity against Schoenoplectiella juncoides assessed as bleaching of stem/leaf parts; format: functional, organism-based; further: test concentration or dose not given here
[12] = system: Schoenoplectiella juncoides; assay: Pre-emergence herbicidal activity against Schoenoplectiella juncoides at 500 g a.i/ha measured after 14 days; format: functional, organism-based
Pontederia vaginalis [13] = assay: Pre-emergence herbicidal activity against Monochoria vaginalis at 500 g a.i/ha measured after 14 days; format: functional, organism-based
Rotala indica [14] = assay: Pre-emergence herbicidal activity against Rotala indica assessed as bleaching of stem/leaf parts; format: functional, organism-based
Eleocharis acicularis [15] = assay: Pre-emergence herbicidal activity against Eleocharis acicularis at 100 g a.i/ha measured after 14 days; format: functional, organism-based
Elatine triandra [16] = assay: Pre-emergence herbicidal activity against Elatine triandra at 500 g a.i/ha measured after 14 days; format: functional, organism-based
Lindernia procumbens [17] = assay: Pre-emergence herbicidal activity against Lindernia procumbens at 500 g a.i/ha measured after 14 days; format: functional, organism-based
Eleocharis acicularis [18] = assay: Post-emergence herbicidal activity against Eleocharis acicularis assessed as bleaching of stem/leaf parts; format: functional, organism-based; further: test concentration or dose not given here
Echinochloa oryzicola [19] = assay: Post-emergence herbicidal activity against Echinochloa oryzicola assessed as bleaching of stem/leaf parts; format: functional, organism-based; further: test concentration or dose not given here
Ammannia multiflora [20] = assay: Pre-emergence herbicidal activity against Ammannia multiflora at 500 g a.i/ha measured after 14 days; format: functional, organism-based
Oryza sativa [21] = assay: Phytotoxicity against Oryza sativa cv. Koshihikari (rice) at 100 g a.i/ha measured after 14 days; format: organism-based; conditions: in vivo, 336 h
Elatine triandra [22] = assay: Post-emergence herbicidal activity against Elatine triandra assessed as bleaching of stem/leaf parts; format: functional, organism-based; further: test concentration or dose not given here
Lindernia procumbens [23] = assay: Pre-emergence herbicidal activity against Lindernia procumbens assessed as bleaching of stem/leaf parts; format: functional, organism-based
Ammannia multiflora [24] = assay: Post-emergence herbicidal activity against Ammannia multiflora assessed as bleaching of stem/leaf parts; format: functional, organism-based; further: test concentration or dose not given here
[25] = system: Schoenoplectiella juncoides; assay: Pre-emergence herbicidal activity against Schoenoplectiella juncoides at 100 g a.i/ha measured after 14 days; format: functional, organism-based
Pontederia vaginalis [26] = assay: Pre-emergence herbicidal activity against Monochoria vaginalis assessed as bleaching of stem/leaf parts; format: functional, organism-based
Pontederia vaginalis [27] = assay: Post-emergence herbicidal activity against Monochoria vaginalis assessed as bleaching of stem/leaf parts; format: functional, organism-based; further: test concentration or dose not given here
[28] = system: Schoenoplectiella juncoides; assay: Pre-emergence herbicidal activity against Schoenoplectiella juncoides assessed as bleaching of stem/leaf parts; format: functional, organism-based
Rotala indica [29] = assay: Pre-emergence herbicidal activity against Rotala indica at 500 g a.i/ha measured after 14 days; format: functional, organism-based
Pontederia vaginalis [30] = assay: Pre-emergence herbicidal activity against Monochoria vaginalis at 100 g a.i/ha measured after 14 days; format: functional, organism-based
Echinochloa oryzicola [31] = assay: Pre-emergence herbicidal activity against Echinochloa oryzicola at 100 g a.i/ha measured after 14 days; format: functional, organism-based
Ammannia multiflora [32] = assay: Pre-emergence herbicidal activity against Ammannia multiflora assessed as bleaching of stem/leaf parts; format: functional, organism-based
Ammannia multiflora [33] = assay: Pre-emergence herbicidal activity against Ammannia multiflora at 100 g a.i/ha measured after 14 days; format: functional, organism-based
Elatine triandra [34] = assay: Pre-emergence herbicidal activity against Elatine triandra at 100 g a.i/ha measured after 14 days; format: functional, organism-based
Elatine triandra [35] = assay: Pre-emergence herbicidal activity against Elatine triandra assessed as bleaching of stem/leaf parts; format: functional, organism-based
Rotala indica [36] = assay: Pre-emergence herbicidal activity against Rotala indica at 100 g a.i/ha measured after 14 days; format: functional, organism-based
Cyperus difformis [37] = assay: Pre-emergence herbicidal activity against Cyperus difformis at 500 g a.i/ha measured after 14 days; format: functional, organism-based
Lindernia procumbens [38] = assay: Post-emergence herbicidal activity against Lindernia procumbens assessed as bleaching of stem/leaf parts; format: functional, organism-based; further: test concentration or dose not given here

| Structure (SMILES) | Activity (Echinochloa oryzicola [1]) | Activity (Eleocharis acicularis [2]) | Activity (Rotala indica [3]) | Activity (Lindernia procumbens [4]) | Activity (Eleocharis acicularis [5]) | Activity (Cyperus difformis [6]) | Activity (Echinochloa oryzicola [7]) | Activity (Oryza sativa [8]) | Activity (Cyperus difformis [9]) | Activity (Cyperus difformis [10]) | Activity [11] | Activity [12] | Activity (Pontederia vaginalis [13]) | Activity (Rotala indica [14]) | Activity (Eleocharis acicularis [15]) | Activity (Elatine triandra [16]) | Activity (Lindernia procumbens [17]) | Activity (Eleocharis acicularis [18]) | Activity (Echinochloa oryzicola [19]) | Activity (Ammannia multiflora [20]) | also measured |
| --- | --- | --- | --- | --- | --- | --- | --- | --- | --- | --- | --- | --- | --- | --- | --- | --- | --- | --- | --- | --- | --- |
| CONC(=O)c1cn(C)nc1OCc1cccc(C(F)(F)F)c1 | Active | Active | Active | Active | Active | Active | Active | Non-toxic | Active | Active | Active | Active | Active | Active | inactive | Active | Active | Active | Active | Active | Activity (Oryza sativa [21]): Non-toxic; Activity (Elatine triandra [22]): Active; Activity (Lindernia procumbens [23]): Active; Activity (Ammannia multiflora [24]): Active; Activity [25]: Active; Activity (Pontederia vaginalis [26]): Active; Activity (Pontederia vaginalis [27]): Active; Activity [28]: Active; Activity (Rotala indica [29]): Active; Activity (Pontederia vaginalis [30]): Active; Activity (Echinochloa oryzicola [31]): Active; Activity (Ammannia multiflora [32]): Active; Activity (Ammannia multiflora [33]): Active; Activity (Elatine triandra [34]): Active; Activity (Elatine triandra [35]): Active; Activity (Rotala indica [36]): Active; Activity (Cyperus difformis [37]): Active; Activity (Lindernia procumbens [38]): Active |
| Cn1cc(C(=O)NOc2cccc(Cl)c2)c(OCc2cccc(C(F)(F)F)c2)n1 | Active | Active | Active | Active | Active | Active | Active | Non-toxic | Active | Active | Active | Active | Active | Active | Active | Active | Active | Active | Active | Active | Activity (Oryza sativa [21]): Non-toxic; Activity (Elatine triandra [22]): Active; Activity (Lindernia procumbens [23]): Active; Activity (Ammannia multiflora [24]): Active; Activity [25]: Active; Activity (Pontederia vaginalis [26]): Active; Activity (Pontederia vaginalis [27]): Active; Activity [28]: Active; Activity (Rotala indica [29]): Active; Activity (Pontederia vaginalis [30]): Active; Activity (Echinochloa oryzicola [31]): Active; Activity (Ammannia multiflora [32]): Active; Activity (Ammannia multiflora [33]): Active; Activity (Elatine triandra [34]): Active; Activity (Elatine triandra [35]): Active; Activity (Rotala indica [36]): Active; Activity (Cyperus difformis [37]): Active; Activity (Lindernia procumbens [38]): Active |
| CCCCONC(=O)c1cn(C)nc1OCc1cccc(C(F)(F)F)c1 | Active | Active | Active | Active | Active | Active | Active | Toxic | Active | Active | Active | Active | Active | Active | Active | Active | Active | Active | Active | Active | Activity (Oryza sativa [21]): Non-toxic; Activity (Elatine triandra [22]): Active; Activity (Lindernia procumbens [23]): Active; Activity (Ammannia multiflora [24]): Active; Activity [25]: Active; Activity (Pontederia vaginalis [26]): Active; Activity (Pontederia vaginalis [27]): Active; Activity [28]: Active; Activity (Rotala indica [29]): Active; Activity (Pontederia vaginalis [30]): Active; Activity (Echinochloa oryzicola [31]): Active; Activity (Ammannia multiflora [32]): Active; Activity (Ammannia multiflora [33]): Active; Activity (Elatine triandra [34]): Active; Activity (Elatine triandra [35]): Active; Activity (Rotala indica [36]): Active; Activity (Cyperus difformis [37]): Active; Activity (Lindernia procumbens [38]): Active |
